From patent US20260242418A1, “CYCLIC PEPTIDES WITH ANTIBACTERIAL ACTIVITY AGAINST MULTIDRUG RESISTANT (MDR) PATHOGENS” (priority 2022, published 2026)
≈ marks a conversion by molar mass, not a printed value.

Tests used:
[1] = test system: A. baumannii 8 clinical strain; experiment: Time-kill curves; assay type: cell-based, Acinetobacter baumannii
Description: (§1) Time-kill curves (TKC) determine the in vitro antimicrobial activity of a compound, monitoring the bacterial growth over a certain period of time.
(§2) This assay was performed for two Acinetobacter baumannii strains (a clinical strain and ATCC 19606 strain) and one Pseudomonas aeruginosa ATCC 27853 strain, monitoring its growth during 24 hours at different PLP-3 (SEQ ID NO: 4) concentrations: MIC, 2×MIC, 4×MIC, 8×MIC. Moreover, in each TKC assay a negative and a positive growth control was stablished.
(§3) In different 13MI tubes, a certain concentration of PLP-3 peptide, Mueller-Hinton Broth (MHB, 1214, Condalab) and a fixed inoculum concentration were added. The final inoculum concentration in each tube was […]. Tubes were incubated at 37° C. at 180 rpm during 24 hours. Aliquots of the liquid culture were taken at different times: 0 h, 10 minutes, 30 minutes, 1 h, 2 h, 4 h, 8 h and 24 h. For each taken aliquot, serial dilutions with Phosphate Saline Buffer 1× (PBS 1×) were made and streaked in Luria-Bertani Agar (LB, 1083, Condalab). LB Agar plates were incubated at 37° C. during 18-22 hours. Grown colonies in LB Agar were counted in order to quantify the inoculum in each time period.
(§4) Three biological replicates were performed for each strain, and the mean and standard deviation was determined each time.

Acinetobacter baumannii = assay type: cell-based
From the text: (§5) Minimum Inhibitory Concentration (MIC) of a peptide of SEQ D NO: 4 (abbreviated PLP-3) and colistin against a collection of clinically relevant and commercially available bacterial strains was obtained via broth microdilution. The protocol for antimicrobial activity determination, detailed below, consisted in a modification of Clinical & Laboratory Standards Institute (CLSI) Guidelines.
(§6) MIC is the value defined as the lowest concentration of an antimicrobial, in these tests either PLP-3 or colistin, which inhibits the macroscopic growth of a bacterial strain after 18-22 h incubation at 37° C. The results from these assays are obtained via visual identification of the bacterial bottom at the end of the wells of the testing plate. Since the wells contain decreasing concentrations of the compounds, the final result is indicated as a concentration, MIC, expressed in μg/mL of the agent (in this case PLP-3 or colistin).
(§7) Bacterial strains were streaked in Columbia Agar plates (Columbia Agar with 5% Sheep Blood 90 mm Stacker plates, BD) and incubated overnight at 37° C. Polypropylene round bottomed 96-well plates were filled with 50 μL/well of Mueller-Hinton Broth (MHB, CM0405, 500 g, ThermoFisher Scientific™ Oxoid™) and 50 μL of either colistin or PLP-3 (at 4× the chosen initial concentration of the test) were added to the first well of each row of the plate followed by serial dilutions up until the 10th column of the plate.
(§8) Finally, strain inoculums were prepared by diluting 1:100 0.5 McFarland solutions in MHB. Plates were then inoculated with 50 μL of the inoculums and covered with film before 18 to 22 h incubation at 37 C.
(§9) Three biological and three technical replicates were performed per strain.
(§10) Broth microdilution testing of 15 strains of each species provided MIC50 and […] values (Table 4). Strains were either from clinical origin, relevant to current clinical situation, or commercially available strains belonging to the American Type Culture Collection (ATCC), namely: A. baumannii 17978 and 19606, K. pneumoniae 13883 and P. aeruginosa 27853.
(§11) This panel represents an example of relevant MDR, colistin resistant and colistin susceptible strains from which to compare results. The minimum inhibitory concentration (MIC) is the lowest concentration of a chemical, usually a drug, which prevents visible growth of a bacterium or bacteria. MIC50 represents the antimicrobial concentration value that inhibits the growth of 50% of the bacterial strains and […] of each species from the tested panel of strains. Being colistin both a peptide and a last-resource antibiotic, it was included in these assays for comparison against a commercially available antibiotic.

Klebsiella pneumoniae = assay type: cell-based
From the text: as §5, §6, §7, §8, §9, §10, §11

P. aeruginosa ATCC 27853 = experiment: Time-kill curves; assay type: cell-based, Pseudomonas aeruginosa
Description: as §1, §2, §3, §4

[2] = time-kill curves over 24 hours, MIC to 8xMIC
[3] = panel of 15 A. baumannii strains
[4] = panel of 15 K. pneumoniae strains

Q: Which results are given for `CC(C)C[C@@H]1NC(=O)[C@H](CCCNC(=N)N)NC(=O)[C@H](CCCNC(=N)N)NC(=O)[C@H](CCCNC(=N)N)NC(=O)[C@H]2CCCN2C(=O)[C@H](CCCNC(=N)N)NC(=O)[C@H](CCCNC(=N)N)NC(=O)[C@H](C(C)C)NC(=O)[C@@H]2CSSC[C@H](NC1=O)C(=O)N[C@@H](Cc1ccccc1)C(=O)N[C@@H](C(C)C)C(=O)N[C@@H](CCCNC(=N)N)C(=O)N1CCC[C@@H]1C(=O)N[C@@H](CCCCN)C(=O)N[C@@H](Cc1ccccc1)C(=O)N[C@@H](C(C)C)C(=O)N[C@@H](C(C)C)C(=O)N2` [PLP-3, cyclo[RRRLCFVRPKFVVCVRRP]]?
A: log(CFU/mL) Mean ([1]; 2xMIC (4 μg/mL), 0.00 h): 5.60 log(CFU/mL); log(CFU/mL) Mean ([1]; 2xMIC (4 μg/mL), 0.17 h): 5.56 log(CFU/mL); log(CFU/mL) Mean ([1]; 2xMIC (4 μg/mL), 0.50 h): 4.92 log(CFU/mL); log(CFU/mL) Mean ([1]; 2xMIC (4 μg/mL), 1.00 h): 4.20 log(CFU/mL); log(CFU/mL) Mean ([1]; 2xMIC (4 μg/mL), 2.00 h): 2.74 log(CFU/mL); log(CFU/mL) Mean ([1]; 2xMIC (4 μg/mL), 4.00 h): 1.89 log(CFU/mL); log(CFU/mL) Mean ([1]; 2xMIC (4 μg/mL), 8.00 h): 1.05 log(CFU/mL); log(CFU/mL) Mean ([1]; 2xMIC (4 μg/mL), 24.00 h): 1.49 log(CFU/mL); log(CFU/mL) Mean ([1]; 4xMIC (8 μg/mL), 0.00 h): 5.60 log(CFU/mL); log(CFU/mL) Mean ([1]; 4xMIC (8 μg/mL), 0.17 h): 5.30 log(CFU/mL); log(CFU/mL) Mean ([1]; 4xMIC (8 μg/mL), 0.50 h): 4.11 log(CFU/mL); log(CFU/mL) Mean ([1]; 4xMIC (8 μg/mL), 1.00 h): 2.74 log(CFU/mL); log(CFU/mL) Mean ([1]; 4xMIC (8 μg/mL), 2.00 h): 0.00 log(CFU/mL); log(CFU/mL) Mean ([1]; 4xMIC (8 μg/mL), 4.00 h): 0.00 log(CFU/mL); log(CFU/mL) Mean ([1]; 4xMIC (8 μg/mL), 8.00 h): 0.00 log(CFU/mL); log(CFU/mL) Mean ([1]; 4xMIC (8 μg/mL), 24.00 h): 0.00 log(CFU/mL); log(CFU/mL) Mean ([1]; 8xMIC (16 μg/mL), 0.00 h): 5.60 log(CFU/mL); log(CFU/mL) Mean ([1]; 8xMIC (16 μg/mL), 0.17 h): 4.45 log(CFU/mL); log(CFU/mL) Mean ([1]; 8xMIC (16 μg/mL), 0.50 h): 0.00 log(CFU/mL); log(CFU/mL) Mean ([1]; 8xMIC (16 μg/mL), 1.00 h): 0.00 log(CFU/mL); log(CFU/mL) Mean ([1]; 8xMIC (16 μg/mL), 2.00 h): 0.00 log(CFU/mL); log(CFU/mL) Mean ([1]; 8xMIC (16 μg/mL), 4.00 h): 0.00 log(CFU/mL); log(CFU/mL) Mean ([1]; 8xMIC (16 μg/mL), 8.00 h): 0.00 log(CFU/mL); log(CFU/mL) Mean ([1]; 8xMIC (16 μg/mL), 24.00 h): 0.00 log(CFU/mL); log(CFU/mL) Mean ([1]; MIC (2 μg/mL), 0.00 h): 5.60 log(CFU/mL); log(CFU/mL) Mean ([1]; MIC (2 μg/mL), 0.17 h): 5.63 log(CFU/mL); log(CFU/mL) Mean ([1]; MIC (2 μg/mL), 0.50 h): 5.18 log(CFU/mL); log(CFU/mL) Mean ([1]; MIC (2 μg/mL), 1.00 h): 4.55 log(CFU/mL); log(CFU/mL) Mean ([1]; MIC (2 μg/mL), 2.00 h): 3.56 log(CFU/mL); log(CFU/mL) Mean ([1]; MIC (2 μg/mL), 4.00 h): 2.54 log(CFU/mL); log(CFU/mL) Mean ([1]; MIC (2 μg/mL), 8.00 h): 2.90 log(CFU/mL); log(CFU/mL) Mean ([1]; MIC (2 μg/mL), 24.00 h): 4.67 log(CFU/mL); bactericidal or bacteriostatic activity [1, 2]: bactericidal effect; Range of MICs (Acinetobacter baumannii): 1 to 2 µg/mL; MIC50 (Acinetobacter baumannii; [3]): 1 µg/mL (≈ 0.441 µM); MIC90 (Acinetobacter baumannii; [3]): 2 µg/mL (≈ 0.882 µM); MIC range (Klebsiella pneumoniae): 2 to 32 µg/mL; MIC50 (Klebsiella pneumoniae; [4]): 4 µg/mL (≈ 1.76 µM); MIC90 (Klebsiella pneumoniae; [4]): 16 µg/mL (≈ 7.06 µM); log(CFU/mL) Mean (P. aeruginosa ATCC 27853; 2xMIC (16 μg/mL), 0.00 h): 5.52 log(CFU/mL); log(CFU/mL) Mean (P. aeruginosa ATCC 27853; 2xMIC (16 μg/mL), 0.17 h): 4.48 log(CFU/mL); log(CFU/mL) Mean (P. aeruginosa ATCC 27853; 2xMIC (16 μg/mL), 0.50 h): 3.75 log(CFU/mL); log(CFU/mL) Mean (P. aeruginosa ATCC 27853; 2xMIC (16 μg/mL), 1.00 h): 2.97 log(CFU/mL); log(CFU/mL) Mean (P. aeruginosa ATCC 27853; 2xMIC (16 μg/mL), 2.00 h): 0.88 log(CFU/mL); log(CFU/mL) Mean (P. aeruginosa ATCC 27853; 2xMIC (16 μg/mL), 4.00 h): 0.00 log(CFU/mL); log(CFU/mL) Mean (P. aeruginosa ATCC 27853; 2xMIC (16 μg/mL), 8.00 h): 0.00 log(CFU/mL); log(CFU/mL) Mean (P. aeruginosa ATCC 27853; 2xMIC (16 μg/mL), 24.00 h): 0.00 log(CFU/mL); log(CFU/mL) Mean (P. aeruginosa ATCC 27853; 4xMIC (32 μg/mL), 0.00 h): 5.52 log(CFU/mL); log(CFU/mL) Mean (P. aeruginosa ATCC 27853; 4xMIC (32 μg/mL), 0.17 h): 4.32 log(CFU/mL); log(CFU/mL) Mean (P. aeruginosa ATCC 27853; 4xMIC (32 μg/mL), 0.50 h): 3.46 log(CFU/mL); log(CFU/mL) Mean (P. aeruginosa ATCC 27853; 4xMIC (32 μg/mL), 1.00 h): 1.23 log(CFU/mL); log(CFU/mL) Mean (P. aeruginosa ATCC 27853; 4xMIC (32 μg/mL), 2.00 h): 0.57 log(CFU/mL); log(CFU/mL) Mean (P. aeruginosa ATCC 27853; 4xMIC (32 μg/mL), 4.00 h): 0.00 log(CFU/mL); log(CFU/mL) Mean (P. aeruginosa ATCC 27853; 4xMIC (32 μg/mL), 8.00 h): 0.00 log(CFU/mL); log(CFU/mL) Mean (P. aeruginosa ATCC 27853; 4xMIC (32 μg/mL), 24.00 h): 0.00 log(CFU/mL); log(CFU/mL) Mean (P. aeruginosa ATCC 27853; 8xMIC (64 μg/mL), 0.00 h): 5.52 log(CFU/mL); log(CFU/mL) Mean (P. aeruginosa ATCC 27853; 8xMIC (64 μg/mL), 0.17 h): 4.14 log(CFU/mL); log(CFU/mL) Mean (P. aeruginosa ATCC 27853; 8xMIC (64 μg/mL), 0.50 h): 1.43 log(CFU/mL); log(CFU/mL) Mean (P. aeruginosa ATCC 27853; 8xMIC (64 μg/mL), 1.00 h): 0.00 log(CFU/mL); log(CFU/mL) Mean (P. aeruginosa ATCC 27853; 8xMIC (64 μg/mL), 2.00 h): 0.00 log(CFU/mL); log(CFU/mL) Mean (P. aeruginosa ATCC 27853; 8xMIC (64 μg/mL), 4.00 h): 0.00 log(CFU/mL); log(CFU/mL) Mean (P. aeruginosa ATCC 27853; 8xMIC (64 μg/mL), 8.00 h): 0.00 log(CFU/mL); log(CFU/mL) Mean (P. aeruginosa ATCC 27853; 8xMIC (64 μg/mL), 24.00 h): 0.00 log(CFU/mL); log(CFU/mL) Mean (P. aeruginosa ATCC 27853; MIC (8 μg/mL), 0.00 h): 5.52 log(CFU/mL); log(CFU/mL) Mean (P. aeruginosa ATCC 27853; MIC (8 μg/mL), 0.17 h): 4.81 log(CFU/mL); log(CFU/mL) Mean (P. aeruginosa ATCC 27853; MIC (8 μg/mL), 0.50 h): 4.34 log(CFU/mL); log(CFU/mL) Mean (P. aeruginosa ATCC 27853; MIC (8 μg/mL), 1.00 h): 3.67 log(CFU/mL); log(CFU/mL) Mean (P. aeruginosa ATCC 27853; MIC (8 μg/mL), 2.00 h): 3.15 log(CFU/mL); log(CFU/mL) Mean (P. aeruginosa ATCC 27853; MIC (8 μg/mL), 4.00 h): 2.63 log(CFU/mL); log(CFU/mL) Mean (P. aeruginosa ATCC 27853; MIC (8 μg/mL), 8.00 h): 2.10 log(CFU/mL); log(CFU/mL) Mean (P. aeruginosa ATCC 27853; MIC (8 μg/mL), 24.00 h): 5.08 log(CFU/mL); bactericidal or bacteriostatic activity (P. aeruginosa ATCC 27853; [2]): bactericidal effect
